pIC50: −log10 of the molar value.
Legend:
[1] = system: A549 non-small cell lung cancer cell line; assay: SRB chemosensitivity (cytotoxicity) assay, A549; assay type: cell-based; details: SRB test, 72 h incubation, mean of 3 experiments
Description: (§1) The compounds were evaluated on two non-small cell lung cancer cell lines (A549 and SW1573). These cell lines were characterized for deoxynucleoside analog sensitivity and activity of dCK previously.
(§2) The chemosensitivity assay used in this study was the sulforhodamineB (SRB) assay as described earlier (Keepers et al, Eur J. Cancer, 1991; Rubinstein et al, J. Natl. Cancer Inst., 1990). Cells were transferred to 96 wells plates on day 0; on day 1 a serial dilution of the drug was made from a stock solution and added to the cells in triplicate. After an incubation period of 72 h the cells were fixed for 1 hr at 4° C. with 50% trichloroacetic acid washed, air-dried and stained with 0.4% SRB. The optical density was measured at 492 nm with a microplate reader (Tecan, Salzburg, Austria).
(§3) The results were expressed as percentage of control growth: […]
(§4) The data were plotted in a graph to give a growth inhibition curve. From this growth inhibition curve the […] value was determined by interpolating at the 50% growth level. […] LogP was estimated using ChemDraw 8.0 ultra. IC50s are expressed as mean of 3 experiments.

[2] = system: SW1573 non-small cell lung cancer cell line; assay: SRB chemosensitivity (cytotoxicity) assay, SW1573; assay type: cell-based; details: SRB test, 72 h incubation, mean of 3 experiments
Description: as §1, §2, §3, §4

[3] = system: Panc-02 pancreatic cancer cell line; assay: SRB cytotoxicity assay, Panc-02; assay type: cell-based
Description: (§5) Sensitivity to four prodrugs with linear aliphatic chains of different length was determined by the SRB cytotoxicity assay^[12], the IC50 value of the drug was determined in the different cell lines by interpolating the growth inhibition curves. The tests were performed on the BxPC-3 and Panc-02 pancreatic cancer cell lines.

[4] = system: BxPC-3 pancreatic cancer cell line; assay: SRB cytotoxicity assay, BxPC-3; assay type: cell-based; details: BxPC-3 (BxPC3) pancreatic cancer cell line
Description: as §5

A549 = assay: SRB assay with addition of dipyridamole (role of ENT transport), A549; assay type: cell-based; details: A549, dipyridamole added to the cells
Excerpt: These cell lines were chosen because they had been characterized earlier for sensitivity to gemcitabine and for the activity of the rate-limiting enzyme in the activation of gemcitabine and troxacitabine, deoxycytidine kinase (dCK); […] In addition, non-small cell lung cancer is routinely being treated with gemcitabine containing regimens. […] It should be noted that it is unlikely that they are being phosphorylated as prodrugs due to their steric hindrance. […] In a cell line we tested whether transport (ENT) would play a role by addition of dipyridamole to the cells. In A549 dipyridamole gave a 2-fold increase in the IC50, but this was not observed for the prodrugs. […] It is likely that these cycloalkyl and aromatic moieties at the N4 position of compounds 6l-t may render these compounds poor substrates of intracellular amidases. We therefore speculate that the amidase-catalyzed hydrolysis of the prodrugs may play an important role, allowing the release of troxacitabine into the intracellular compartment for activation (the triphosphate). The better activity profile of prodrugs 6h-k could have been the result of an increased uptake due to the high lipophilicity as well as of a high rate of amidase-catalyzed cleavage of the linear aliphatic derivatives intracellularly.

[5] = cited from earlier work

Compound | pIC50 ([1]; Homo sapiens, A549) | pIC50 ([2]; Homo sapiens, SW1573) | other results
CC(=O)Nc1ccn([C@@H]2CO[C@H](CO)O2)c(=O)n1 [Compound 6a, (−)-(2S,4S)-1-[2-(Hydroxymethyl)-1,3-dioxolan-4-yl]-4-N-acetyl-cytosine] | 5.16 | 4.97 | 
CCCC(=O)Nc1ccn([C@@H]2CO[C@H](CO)O2)c(=O)n1 [Compound 6c, (−)-(2S,4S)-1-[2-(Hydroxymethyl)-1,3-dioxolan-4-yl]-4-N-butirryl-cytosine] |  |  | pIC50 [1]: 5.18; pIC50 [2]: 5.09
CCCCC(=O)Nc1ccn([C@@H]2CO[C@H](CO)O2)c(=O)n1 [Compound 6e, (−)-(2S,4S)-1-[2-(Hydroxymethyl)-1,3-dioxolan-4-yl]-4-N-valeryl-cytosine] | 5.28 | 5.04 | 
CCCCCCC(=O)Nc1ccn([C@@H]2CO[C@H](CO)O2)c(=O)n1 [Compound 6g, (−)-(2S,4S)-1-[2-(Hydroxymethyl)-1,3-dioxolan-4-yl]-4-N-heptanoyl-cytosine] | 5.98 | 5.62 | 
CCCCCCCCC(=O)Nc1ccn([C@@H]2CO[C@H](CO)O2)c(=O)n1 [Compound 6h, (−)-(2S,4S)-1-[2-(Hydroxymethyl)-1,3-dioxolan-4-yl]-4-N-nonanoyl-cytosine] | 7.34 | 6.56 | 
CCCCCCCCCC(=O)Nc1ccn([C@@H]2CO[C@H](CO)O2)c(=O)n1 [Compound 6i, (−)-(2S,4S)-1-[2-(Hydroxymethyl)-1,3-dioxolan-4-yl]-4-N-decanoyl-cytosine] | 7.62 | 7.40 | enhancement of sensitivity compared to troxacitabine [3]: 1400 fold; melting point: 141 to 143 °C
CCCCCCCCCCCCNc1ccn([C@@H]2CO[C@H](CO)O2)c(=O)n1 [Compound 6j, (−)-(2S,4S)-1-[2-(Hydroxymethyl)-1,3-dioxolan-4-yl]-4-N-lauryl-cytosine] | 7.82 | 7.48 | decrease in IC50 / enhancement of sensitivity compared to troxacitabine [4]: 160 fold
CCCCCCCCCCCCCCCC(=O)Nc1ccn([C@@H]2CO[C@H](CO)O2)c(=O)n1 [Compound 6k, (−)-(2S,4S)-1-[2-(Hydroxymethyl)-1,3-dioxolan-4-yl]-4-N-palmitoyl-cytosine] | 8.40 | 7.70 | 
O=c1nc(NC2CC2)ccn1[C@@H]1CO[C@H](CO)O1 [Compound 6l, (−)-(2SAS)-1-[2-(Hydroxymethyl)-1,3-dioxolan-4-yl]-4-N-cyclopropyl-cytosine] |  |  | pIC50 [1]: 4.73; pIC50 [2]: 4.66
O=c1nc(NC2CCCC2)ccn1[C@@H]1CO[C@H](CO)O1 [Compound 6m, (−)-(2S,4S)-1-[2-(Hydroxymethyl)-1,3-dioxolan-4-yl]-4-N-cyclopentyl-cytosine] | 5.53 | 5.06 | 
O=c1nc(NC2CCCCC2)ccn1[C@@H]1CO[C@H](CO)O1 [Compound 6n, (−)-(2S,4S)-1-[2-(Hydroxymethyl)-1,3-dioxolan-4-yl]-4-N-cyclohexyl-cytosine] | 5.13 | 4.85 | 
O=C(Nc1ccn([C@@H]2CO[C@H](CO)O2)c(=O)n1)c1ccccc1 [Compound 6o, (−)-(2S,4S)-1-[2-(Hydroxymethyl)-1,3-dioxolan-4-yl]-4-N-benzoyl-cytosine] | 5.07 | 4.86 | 
O=C(Nc1ccn([C@@H]2CO[C@H](CO)O2)c(=O)n1)c1ccc(F)cc1 [Compound 6p, (−)-(2S,4S)-1-[2-(Hydroxymethyl)-1,3-dioxolan-4-yl]-4-N-(p-fluorobenzoyl)-cytosine] | 5.06 | 4.81 | 
O=C(Nc1ccn([C@@H]2CO[C@H](CO)O2)c(=O)n1)c1ccc(Cl)cc1 [Compound 6q, (−)-(2S,4S)-1-[2-(Hydroxymethyl)-1,3-dioxolan-4-yl]-4-N-(p-chlorobenzoyl)-cytosine] | 6.39 | 5.56 | 
O=C(Nc1ccn([C@@H]2CO[C@H](CO)O2)c(=O)n1)c1ccc(Br)cc1 [Compound 6r, (−)-(2S,4S)-1-[2-(Hydroxymethyl)-1,3-dioxolan-4-yl]-4-N-(p-bromobenzoyl)-cytosine] | 5.34 | 5.05 | 
COc1ccc(C(=O)Nc2ccn([C@@H]3CO[C@H](CO)O3)c(=O)n2)cc1 [Compound 6s, (−)-(2S,4S)-1-[2-(Hydroxymethyl)-1,3-dioxolan-4-yl]-4-N-(p-methoxybenzoyl)-cytosine] | 5.46 | 5.00 | 
O=C(Nc1ccn([C@@H]2CO[C@H](CO)O2)c(=O)n1)c1ccc(Cl)cc1Cl [Compound 6t, (−)-(2S,4S)-1-[2-(Hydroxymethyl)-1,3-dioxolan-4-yl]-4-N-(2,4-dichlorobenzoyl)-cytosine] | 5.01 | 4.84 | melting point: 185 to 187 °C
Nc1ccn([C@@H]2O[C@H](CO)[C@@H](O)[C@@H]2O)c(=O)n1 [Cytarabine, reference compound] | 6.21 | 4.98 | 
Nc1ccn([C@@H]2O[C@H](CO)[C@@H](O)C2(F)F)c(=O)n1 [Gemcitabine, reference compound] | 7.89 | 8.10 | 
Nc1ccn([C@@H]2CO[C@H](CO)O2)c(=O)n1 [Troxacitabine, (−)-2′-deoxy-3′-oxacytidine, reference compound] | 6.17 | 5.64 | increase in the IC50 by dipyridamole (A549): 2 fold; plasma half-life [5]: 82 h

From US20100266674A1, “L-ODDC PRODRUGS FOR CANCER” (UNIVERSITY OF GEORGIA RESEARCH FOUNDATION, INC., priority 2006, published 2010)
